Here are results for twelve molecules from ChEMBL document CHEMBL1133537, “Chiral derivatives of 2-cyclohexylideneperhydro-4,7-methanoindenes, a novel class of nonsteroidal androgen receptor ligand: synthesis, X-ray analysis, and biological activity” (J Med Chem, 2000).

Assay [1] deals with T1, Androgen receptor (Rattus norvegicus, UniProt P15207).
T1 sequence (P15207 whole entry): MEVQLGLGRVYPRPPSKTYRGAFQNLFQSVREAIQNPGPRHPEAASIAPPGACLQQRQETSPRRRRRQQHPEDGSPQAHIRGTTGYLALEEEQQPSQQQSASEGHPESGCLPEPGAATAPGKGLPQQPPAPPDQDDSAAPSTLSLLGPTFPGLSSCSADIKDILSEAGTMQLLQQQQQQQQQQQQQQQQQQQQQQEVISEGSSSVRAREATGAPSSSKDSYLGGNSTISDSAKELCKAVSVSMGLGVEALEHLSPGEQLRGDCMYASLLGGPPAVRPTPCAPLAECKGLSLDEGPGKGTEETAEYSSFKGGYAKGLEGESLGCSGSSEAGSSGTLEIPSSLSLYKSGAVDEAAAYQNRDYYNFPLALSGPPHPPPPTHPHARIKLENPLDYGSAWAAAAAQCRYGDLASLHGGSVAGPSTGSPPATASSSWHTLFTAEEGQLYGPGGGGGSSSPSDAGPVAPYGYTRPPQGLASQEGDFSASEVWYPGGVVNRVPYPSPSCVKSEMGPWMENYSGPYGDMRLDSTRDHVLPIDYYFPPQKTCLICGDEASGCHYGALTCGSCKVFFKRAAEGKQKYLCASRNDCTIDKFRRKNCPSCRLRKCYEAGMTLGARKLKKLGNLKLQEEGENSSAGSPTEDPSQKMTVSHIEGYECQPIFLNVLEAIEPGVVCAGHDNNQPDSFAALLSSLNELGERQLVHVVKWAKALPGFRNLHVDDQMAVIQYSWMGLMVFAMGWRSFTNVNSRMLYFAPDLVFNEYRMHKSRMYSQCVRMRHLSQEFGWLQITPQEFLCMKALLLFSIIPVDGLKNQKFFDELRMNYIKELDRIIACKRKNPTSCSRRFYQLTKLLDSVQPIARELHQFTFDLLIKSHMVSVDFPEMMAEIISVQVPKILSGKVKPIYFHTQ
Description: Ability to inhibit binding of [3H]R-1881 to rat ventral prostate cytosolic androgen receptor was measured in a radioligand binding assay.

Assay [2] concerns the target T1, Androgen receptor. The assay is described as follows: […] binding affinity fot cytosolic androgen receptor.
Assay [3] is described as follows: Eudismic ratio which is the ratio of potency of eutomer and distomer.

In the case of `O=C1CCC(=C2C[C@H]3[C@@H]4CC(=O)[C@@H](C4)[C@H]3C2)CC1`, the IC50 in assay [1] was 14.2 µM.

On to `C#C[C@]1(O)CC[C@H]2[C@@H]3CCC4Cc5nn(S(C)(=O)=O)cc5C[C@]4(C)[C@H]3CC[C@@]21C` (stereo partly drawn), for which the Ki in assay [2] was determined as 2.2 µM. Turning to `C[C@@]1(O)C[C@H]2C[C@@H]1[C@@H]1CC(=C3CCC(=O)CC3)C[C@H]21`, half-maximal inhibition in assay [1] (IC50) was put at 27.4 µM. The molecule `O=C1CCC(=C2C[C@H]3[C@@H](C2)[C@H]2C[C@@H]3[C@H](O)C2)CC1` registered a half-inhibitory concentration (IC50) in assay [1] of 10.4 µM. As to `O=C1CCC(=C2C[C@@H]3[C@H](C2)[C@@H]2C[C@H]3[C@H](O)C2)CC1`, the Ratio in assay [3] turned out to be 15.5. In assay [2], this molecule returned a Ki of 0.45 µM. The half-maximal inhibitory concentration (IC50) in assay [1] was 35.9 µM. As to `O=C1CCC(=C2C[C@@H]3[C@@H]4C[C@H]([C@@H]3C2)[C@@](O)(C(F)(F)F)C4)CC1`, in assay [3], the Ratio worked out at 2.6. Also, the half-maximal inhibitory concentration (IC50) in assay [1] is 41.2 µM. Regarding `O=C1CCC(=C2C[C@@H]3[C@H]4CC(=O)[C@H](C4)[C@@H]3C2)CC1`, the Ratio in assay [3] turned out to be 2.3. The molecule further registered an IC50 in assay [1] of 33 µM. Take `C#C[C@@]1(O)C[C@H]2C[C@@H]1[C@@H]1CC(=C3CCC(=O)CC3)C[C@H]21`: the Ratio in assay [3] was determined as 4.2. In addition, in assay [1], inhibition was half-maximal at 57 µM (IC50).

`C=C[C@@]1(O)C[C@H]2C[C@@H]1[C@@H]1CC(=C3CCC(=O)CC3)C[C@H]21`: half-maximal inhibition in assay [1] (IC50) was put at 62.5 µM. The molecule `C#C[C@]1(O)C[C@@H]2C[C@H]1[C@H]1CC(=C3CCC(=O)CC3)C[C@@H]21` returned a half-maximal inhibitory concentration (IC50) in assay [1] of 13.5 µM. Regarding `O=C1CCC(=C2C[C@@H]3[C@H](C2)[C@@H]2C[C@H]3[C@@H](O)C2)CC1`, in assay [3], the Ratio came out at 2.7. Further, the 50% inhibitory concentration (IC50) in assay [1] stood at 3.9 µM.

Molecule `O=C1CCC(=C2C[C@H]3[C@H]4C[C@@H]([C@H]3C2)[C@](O)(C(F)(F)F)C4)CC1` yielded an IC50 in assay [1] of 15.6 µM.

One may read the IC50 as the concentration at which inhibition is half-maximal. Low values mean higher potency, high ones lower potency. Usually Ki stands for a measure of affinity in units of concentration, obtained from inhibition or displacement. Higher therefore signals weaker binding.
